# Values quoted from earlier work as cited in patent US11559045B2, “Synergistic mixture for inducing hygienic behavior in honey bees, and related compositions and methods” (University of North Carolina at Greensboro, priority 2019, dated 2023).
# Test system: honey bees
# Details: previously shown (US 2018/0177160; Nazzi et al. 2004)
compound,measurement,value
"CCCCCCCCC/C=C\CCCCCCCCCCCCCCCCCCCCCC [Compound (I), (Z)-10-tritriacontene]",induction of hygienic behavior in honey bees,induce hygienic behavior
"CCCCC/C=C\CCCCCCCC [Compound (IV), (Z)-6-pentadecene]",induction of hygienic behavior in honey bees,induce hygienic behavior
